Assay results as given in article PMC9259545, “Impact of poly-arginine peptides R18D and R18 on alteplase and tenecteplase thrombolysis in vitro, and neuroprotective stability to proteolysis” (Journal of Thrombosis and Thrombolysis, 2022).
No end group written: not given here.

Legend:
[1] = system: patients undergoing thrombectomy; settings: ESCAPE-NA-1 trial, subgroup analysis; cited from earlier work
Source text: The cationic arginine-rich peptides (CARPs) poly-arginine-18 (R18; 18-mer of L-enantiomer arginine; net charge + 18), its D-enantiomer (R18D) and NA-1 (also known as nerinetide or TAT-NR2B9c; net charge + 7) represent emerging neuroprotective therapies for the acute treatment of ischaemic stroke, especially prior to thrombolysis and endovascular thrombectomy.

[2] = molecular target: T1, TNK (Homo sapiens, UniProt P00750, H332A/K331A/N152Q/R333A/R334A/T138N); test: Halo clot thrombolysis assay, TNK thrombolysis of whole blood clots; type: biochemical; settings: concurrent study, 0.5-16 µM peptide, TNK 5 nM, 27.5% human plasma
T1 construct: purchased Boehringer Ingelheim 50 mg vial
Experimental: (§1) We utilised a high throughput 96-well plate thrombolysis assay (“halo clot assay”) based on the procedure developed by Bonnard et al.. To reduce assay components the halo thrombus formation procedure was modified by replacing the original thrombotic mixture consisting of recombinant tissue factor and synthetic phospholipids reconstituted in 30 mM calcium, with thrombin, and reducing the pro-thrombotic volume (i.e., thrombin) from 5 to 3 µL and blood volume from 25 to 12 µL. Another modification to simplify clot formation consisted of adding the thrombin (3 µL; 500 nM in saline) to one side of the well and 12 µL of blood to the opposite side of well, before using a heat stretched Pasteur pipette with sealed end to mix the two liquids together using 4 to 5 circular motions around the edge of the well (halo clot). The original methodology involved adding the 5 μL of the clotting mixture to the edge of the well, and then using a micropipette to slowly release the 25 μL of blood to the edge of the well while at the same time maintaining a circular motion. Plates were incubated in a humidified 37 °C incubator for 1 h before use in the thrombolysis assay.
(§2) The thrombolysis assay involved adding 30 µL of Tris buffer (50 mM Tris–HCl, 100 mM NaCl, pH 7.4) with or without peptide followed by 55 µL Tris buffer containing tPA or TNK (5 nM final concentration) and 50% human plasma (final plasma concentration during thrombolysis 27.5%). The final concentration of peptide during thrombolysis ranged from 0.25 to 16 µM (note: an intravenous dose of R18D at 350 nmol/kg, which is likely to be neuroprotective achieves a Cmax of 0.7–0.9 µM in healthy male and female rats; unpublished observation). […] Following the addition of tPA or TNK into the wells, clot lysis was monitored over a 1-h period at 37 °C using a plate reader (Cytation5, BioTek, USA) by measuring absorbance at 510 nm every 1 min immediately after orbital shaking (205 rpm for 5 s). Controls consisted of wells with no thrombin (100% clot lysis; L100%) and wells with no tPA or TNK (0% clot lysis; L0%). At the 1-h time point, the percentage of thrombolysis (%T) in tPA or TNK treated samples (LTX) was calculated by transforming absorbance values based on the formula: % T = (LTX) − (L0%)/(L100%) − (L0%) × 100. In addition, during the 1-h period of clot lysis lag time and maximal activity (also known as maximum velocity or Vmax) of the thrombolysis reaction were calculated. The lag time is defined as the time interval between the first absorbance reading (time = 0) and the line of maximum slope of the thrombolysis reaction. The maximal activity is calculated from the maximum slope over the time course of the assay and reflects the capacity of an enzyme to catalyse a reaction (i.e., thrombolysis), with higher values representing higher catalytic activity (i.e., tPA/TNK induced plasmin thrombolysis).
(§3) For each thrombolysis assay, replicates for control wells (L0% and L100%) and tPA or TNK only treated wells consisted of n = 4–8. Replicates for tPA or TNK and peptide treated wells consisted of n = 4. For data analysis and graphical representations of the results, data from three independent thrombolytic assays were pooled. Studies consisted of R18D, R18 and NA-1 examined at the 0.5, 1, 2, 4, 8 or 16 µM concentrations performed concurrently on the same 96-well plate, in respective order. In addition, since R18D is known to be resistant to plasmin degradation and appeared to have the most impact on tPA or TNK thrombolysis, a separate set of three independent assays were performed for this peptide alone at concentrations of 0.25, 0.5, 1, 2, 4, 8 or 16 µM. Furthermore, the second dose study with R18D provided the opportunity to include a lower concentration (0.25 µM) of the peptide and to provide comparative data when only one peptide was examined in the thrombolysis assay per 96-well plate as opposed to examining the three peptides concurrently on the same plate. […]

[3] = molecular target: T2, tPA (Homo sapiens, UniProt P00750); test: Halo clot thrombolysis assay, tPA thrombolysis of whole blood clots; type: biochemical; settings: tPA 5 nM, 27.5% human plasma; for Increase in tPA lag time / Increase in tPA thrombolysis maximal activity: concurrent study, 37 °C
T2 construct: purchased Boehringer Ingelheim, Germany 10 mg vial
Experimental: as §1, §2, §3

[4] = system: tPA or TNK; settings: cited from earlier work
Source text: Given the potential future application of the R18D, R18 and NA-1 peptides as ischaemic stroke neurotherapeutics, it is important to establish if they interfere with current and future standard of care treatments, namely alteplase (tPA; recombinant tissue plasminogen activator) and tenecteplase (TNK; a modified version of tPA) thrombolysis, which are routinely administered prior to thrombectomy. Similarly, it is also important to determine whether tPA or TNK may cause proteolytic degradation of the peptides directly or through the activation of plasminogen to plasmin, thereby reducing their pot ...

[5] = system: Rat primary cortical cultures; parameters: method as in PMID 25669902; settings: cited from earlier work
Experimental: To assess peptide proteolytic stability, R18 and R18D neuroprotective efficacy after incubation with tPA, TNK or trypsin was examined in the glutamic acid excitotoxicity model. Peptides were added to culture wells (96-well plate format) 5 min prior to glutamic acid exposure by removing media and adding 50 µL of media containing R18 or R18D at a 2 µM concentration. To induce excitotoxicity, 50 µL of Minimal Essential Media (Life Technologies)/2% B27 (MEM/B27) containing glutamic acid (200 µM: final concentration 100 µM; L-glutamic acid. L-glutamic acid was prepared as a 10,000 µM stock in water ...

[6] = system: tPA or TNK; type: biochemical, human
Experimental: as §1, §2
For each thrombolysis assay, replicates for control wells (L0% and L100%) and tPA or TNK only treated wells consisted of n = 4–8. Replicates for tPA or TNK and peptide treated wells consisted of n = 4. For data analysis and graphical representations of the results, data from three independent thrombolytic assays were pooled. Studies consisted of R18D, R18 and NA-1 examined at the 0.5, 1, 2, 4, 8 or 16 µM concentrations performed concurrently on the same 96-well plate, in respective order. […]

T1 sequence (P00750 36-562 T138N/N152Q/K331A/H332A/R333A/R334A): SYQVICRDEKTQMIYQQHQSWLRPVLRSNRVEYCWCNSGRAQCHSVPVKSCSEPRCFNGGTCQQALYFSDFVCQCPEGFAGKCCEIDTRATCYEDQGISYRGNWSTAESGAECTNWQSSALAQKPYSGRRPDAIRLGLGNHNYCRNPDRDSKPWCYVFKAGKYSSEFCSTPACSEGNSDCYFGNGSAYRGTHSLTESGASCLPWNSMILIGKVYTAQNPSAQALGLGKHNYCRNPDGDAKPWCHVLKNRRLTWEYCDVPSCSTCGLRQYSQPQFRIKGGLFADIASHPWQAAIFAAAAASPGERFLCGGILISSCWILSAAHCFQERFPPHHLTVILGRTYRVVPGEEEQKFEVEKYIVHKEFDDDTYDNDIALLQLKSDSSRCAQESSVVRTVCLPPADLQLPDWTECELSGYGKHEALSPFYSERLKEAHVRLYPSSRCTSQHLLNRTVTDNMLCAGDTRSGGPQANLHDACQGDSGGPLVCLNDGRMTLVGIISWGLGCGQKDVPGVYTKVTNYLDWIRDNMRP
T2 sequence (P00750 36-562): as the sequence (P00750 36-562 T138N/N152Q/K331A/H332A/R333A/R334A) above, with N103T, Q117N, A296K, A297H, A298R, A299R counted along it

Q: Which “Outcome of patients who received NA-1 but not alteplase compared with patients who received both NA-1 and alteplase” value [1] does the source give for “YGRKKRRQRRRKLSSIESDV [NA-1, reference compound]” here?
A: The value was “significantly better functional outcomes, reduced mortality and reduced infarct volume”.

Q: What about the “Effect on TNK lag time vs TNK control” value [2] of the same sequence?
A: The value was “did not significantly increase TNK lag time”.

Q: And the “Effect on TNK thrombolysis maximal activity vs TNK control” value [2]?
A: Its value is “did not significantly impact TNK thrombolysis maximal activity”.

Q: And the “Effect on percentage TNK thrombolysis at 1 h vs TNK control” value ([2]; 37 °C, 1 h)?
A: The value was “did not significantly inhibit TNK thrombolysis”.

Q: And the “Increase in tPA lag time” value ([3]; peptide 1 µM)?
A: Its value is 5.4 min.

Q: And the “Increase in tPA lag time” value ([3]; peptide 2 µM)?
A: Its value is 7.16 min.

Q: And the “Increase in tPA thrombolysis maximal activity” value ([3]; peptide 2 µM)?
A: The value was 40.68%.

Q: What about the “Increase in tPA thrombolysis maximal activity” value ([3]; peptide 4 µM) of the same sequence?
A: Its value is 45.1%.

Q: And the “Increase in tPA thrombolysis maximal activity” value ([3]; peptide 8 µM)?
A: The value was 58.65%.

Q: And the “Increase in tPA thrombolysis maximal activity” value ([3]; peptide 16 µM)?
A: The value was 45.65%.

Q: And the “Effect on percentage tPA thrombolysis at 1 h vs tPA control” value ([3]; three peptides concurrently on the same plate, 0.5-16 µM peptide, Tris pH 7.4, 37 °C, 1 h, absorbance 510 nm, three independent assays pooled, n = 4, Dunnett's test)?
A: Its value is “did not significantly inhibit thrombolysis”.

Q: What about the “Interference with the thrombolytic activity of tPA or TNK” value [4] of the same sequence?
A: Its value is “does not interfere”.

Q: What about the “Neuroprotection in the glutamic acid excitotoxicity model” value [5] of the same sequence?
A: Its value is “no to little neuroprotection”.

Q: And the “Increase in lag time (time to the commencement of thrombolysis)” value ([6]; range over peptide concentrations 0.25-16 µM and both thrombolytics, 1-h assay)?
A: Its value is 0 to 7.16 min.

Q: What about the “Effect on maximal activity of the thrombolysis reaction” value ([6]; summary in abstract) of the same sequence?
A: The value was “appeared to increase the maximal activity”.
